What was measured:
[1] = tested on: skin from 8-month old pigmented pigs; experiment: Pig skin organ culture, 14C-thiouracil incorporation (new melanin synthesis); assay type: cell-based; conditions: 1.4 mg/ml (10 mM), pig skin biopsies, three day incubation
Method: Organ Culture Method Waste skin from 8-month old pigmented pigs was shaved to remove hairs and washed thoroughly to remove debris and reduce microbial content. The cleaned skin was then dermatomed to approximately 1-mm thickness×75-cm^2 and placed in tissue culture flasks containing Dulbecco's Modified Eagle's Medium (DMEM Cat#1188507) containing penicillin (100-units/ml), streptomycin (100-ug/ml), kanamycin (200-ug/ml), […]-mM), and fungizone (0.5-ug/ml). All flasks were incubated overnight at 37° C. in the presence of 5% carbon dioxide. This allowed the skin to equilibrate for 18 hours prior to the addition of melanin inhibitors. Areas of the skin that had scratches, erythema, or uneven pigmentation were discarded. The following morning, the skin was punched into 4-mm diameter biopsies and transferred to a 96-well tissue culture plate. To each well containing a biopsy, 180-microliters of fresh DMEM containing penicillin (100-units/ml), streptomycin (100-ug/ml), […]-mM), hydrocortisone (100-μg/ml) and 0.4-μCi/ml ^14C-thiouracil (Moravek Biochemicals) was added along with 20-microliters of natural extract. […] Samples were mixed several times to ensure even dispersion, sealed, and assessed for radiolabel incorporation using a Packard TopCount scintillation counter. […]

[2] = tested on: MelanoDerm tissue equivalent model (MEL-300) containing melanocytes obtained from dark skin individuals; experiment: MelanoDerm tissue equivalent model, melanin content; assay type: cell-based, human; conditions: 14 micro-g/ml (100 uM); 14-day period, relative to untreated or vehicle control
Method: MelanoDerm Tissue Model Method
A MelanoDerm tissue equivalent model (MEL-300 from Mat Tek, Ashland, Mass.) containing melanocytes obtained from dark skin individuals was utilized to confirm the results obtained in the pig organ culture. MelanoDerms were cultured as per the supplier instructions.
[…] Positive control was included, i.e., kojic acid, which is a known skin lightening agent. During each medium change, a portion of the waste was analyzed for levels of lactate dehydrogenase as an indicator of cellular toxicity and stress. At no time was the level of lactate dehydrogenase above the vehicle control solvents (water or ethanol).
Determination of melanin content within each MelanoDerm was performed using the assay provided by the manufacturer. Each MelanoDerm was homogenized in 450-microliters of buffer (1% SDS, 0.05-mM EDTA, 10-mM Tris-HCl, pH 6.8) containing 20-microliters of Proteinase K (5 mg/ml) and incubated overnight at 45° C. […] The optical density of the top phase was determined (405-nm) following extraction of the sample with 100-microliters of chloroform:methanol (2:1) and centrifugation (10,000 g) for ten minutes. Optical density readings relative to the untreated or vehicle control (water or ethanol) were then calculated.

O=c1cc(CO)occ1O [Kojic Acid]
% Radiolabel Reduction [1]: 56% | % Melanin Reduction [2]: 9.5%

— US7396534B2, “Cosmetic compositions containing Nigrospora sphaerica extracts” (Unilever Home & Personal Care USA, division of Conopco, Inc., priority 2004, dated 2008)
